Results from patent publication US20130065260A1, “Compositions, Methods and Uses for Simultaneous Assay of Thrombin and Plasmin Generation” (The Regents of the University of Colorado, a body corporate, priority 2009, published 2013).

B1: TF: recombinant human tissue factor, lipidated and non-lipidated, initiates coagulation (protein, UniProt P13726 33-295, looked up)
Tissue factor: SGTTNTVAAYNLTWKSTNFKTILEWEPKPVNQVYTVQISTKSGDWKSKCFYTTDTECDLTDEIVKDVKQTYLARVFSYPAGNVESTGSAGEPLYENSPEFTPYLETNLGQPTIQSFEQVGTKVNVTVEDERTLVRRNNTFLSLRDVFGKDLIYTLYYWKSSSSGKKTAKTNTNEFLIDVDKGENYCFSVQAVIPSRTVNRKSTDSPVECMGQEKGEFREIFYIIGAVVFVVIILVIILAISLHKCRKAGVGQSWKENSPLNVS
modifications: lipidated and non-lipidated
notes: recombinant human tissue factor, lipidated and non-lipidated, initiates coagulation

Columns and labels:
plasmin = test: Simultaneous thrombin and plasmin generation (STP) assay, plasmin generation; assay type: biochemical, human; conditions: data not shown; for effect on plasmin generation at heparin 1 U/mL: heparin concentration 1 U/mL
thrombin = test: Simultaneous thrombin and plasmin generation (STP) assay, thrombin generation; assay type: biochemical, human; conditions: data not shown; for effect on thrombin generation at heparin 1 U/mL: heparin concentration 1 U/mL
Description: Reactant solution is prepared as described previously for the CloFAL assay developed in our laboratory. Briefly, lipidated recombinant human tissue factor (TF) (American Diagnostica Inc, Stamford, Conn.), non-lipidated recombinant human TF (American Diagnostica Inc), and recombinant two-chain tissue plasminogen activator (tPA) (American Diagnostica Inc) are added to a stock solution of Tris-buffered saline (TBS; 66 mM Tris, 130 mM NaCl, pH=7.0) containing 34 mM CaCl2, to a concentration of 10 pM of TF (made from 8.7 pM non-lipidated TF and 1.3 pM lipidated TF) and 900 ng/mL of tPA. Final concentrations are 5 pM TF and 450 ng/mL tPA after addition of reactant solution to plasma samples, as described below. The assay blank consists of TBS alone. The reactant solution is freshly prepared from stored stock solutions of TBS, aliquoted TF, and aliquoted tPA just prior to assay. Final concentrations of TF and tPA ranging from 0-10 pM and 0-900 ng/mL, respectively, were investigated during assay development, with ultimate concentrations of these reagents (as well as ratio of lipidated to non-lipidated TF) selected based upon empiric experiments designed to optimize precision and analytical sensitivity to pathologically and physiologically altered states of coagulation and fibrinolysis, as previously performed with the CloFAL assay
Two fluorometric substrates were used for the detection of the key enzymes, thrombin and plasmin. […]
For each patient sample to be analyzed, 90 μL of reactant solution was added simultaneously to each well in a flat-bottom, black, 96 well Costar assay plate (Fisher Scientific, Santa Clara, Calif.) using a multi-tip automated pipette. […] The plate was then placed into the fluorescent spectrophotometer (Multi-Mode Microplate Reader Synergy 2, Bio-Tek Instruments, Winooski, Vt.) where it was pre-warmed at 37 ° C. for three minutes. […] The plate was then drawn back into the fluorescent spectrophotometer where the sample is initially mixed for five seconds followed by fluorescent intensity measurements taken from each well every 45 seconds for four hours at a fluorescent emission of […] (as determined by the chosen fluorescent substrates). […] The kinetic fluorometric intensity data were exported to Microsoft Excel for additional data analyses in order to generate the aforementioned calculated parameters from the raw data. […]

[1] = normal plasma, corn trypsin inhibitor added to citrate whole blood collection tubes, relative to its absence

Molecule | STP findings (plasmin generation) with contact pathway inhibition (plasmin; [1]) | STP findings (thrombin generation) with contact pathway inhibition (thrombin; [1]) | effect on plasmin generation at heparin 1 U/mL (plasmin) | effect on thrombin generation at heparin 1 U/mL (thrombin) | thrombin generation capacity, response to exogenous TF (thrombin; in vitro)
corn trypsin inhibitor | did not alter STP findings | did not alter STP findings | – | – | –
dalteparin | – | – | ablation | ablation | –
porcine unfractionated heparin sodium | – | – | ablation | ablation | –
B1 | – | – | – | – | concentration-responsiveness
